Among the data in ChEMBL document CHEMBL1909046, “DrugMatrix in vitro pharmacology data” are IC50 and Ki values, retold here.

Adenosine receptor A2a, sequence (P29274 whole entry): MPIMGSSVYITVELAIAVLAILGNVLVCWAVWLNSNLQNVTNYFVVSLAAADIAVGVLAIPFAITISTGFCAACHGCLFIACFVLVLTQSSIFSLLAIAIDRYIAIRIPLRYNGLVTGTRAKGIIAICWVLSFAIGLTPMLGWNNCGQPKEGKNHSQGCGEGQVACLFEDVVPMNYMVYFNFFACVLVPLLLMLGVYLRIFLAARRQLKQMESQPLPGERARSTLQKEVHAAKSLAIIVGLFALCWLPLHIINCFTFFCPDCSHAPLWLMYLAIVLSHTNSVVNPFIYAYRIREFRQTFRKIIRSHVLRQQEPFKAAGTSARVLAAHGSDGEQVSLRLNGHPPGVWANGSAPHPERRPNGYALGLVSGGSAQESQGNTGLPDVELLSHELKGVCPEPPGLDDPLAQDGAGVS
Cytochrome P450 2D6, sequence (P10635 whole entry): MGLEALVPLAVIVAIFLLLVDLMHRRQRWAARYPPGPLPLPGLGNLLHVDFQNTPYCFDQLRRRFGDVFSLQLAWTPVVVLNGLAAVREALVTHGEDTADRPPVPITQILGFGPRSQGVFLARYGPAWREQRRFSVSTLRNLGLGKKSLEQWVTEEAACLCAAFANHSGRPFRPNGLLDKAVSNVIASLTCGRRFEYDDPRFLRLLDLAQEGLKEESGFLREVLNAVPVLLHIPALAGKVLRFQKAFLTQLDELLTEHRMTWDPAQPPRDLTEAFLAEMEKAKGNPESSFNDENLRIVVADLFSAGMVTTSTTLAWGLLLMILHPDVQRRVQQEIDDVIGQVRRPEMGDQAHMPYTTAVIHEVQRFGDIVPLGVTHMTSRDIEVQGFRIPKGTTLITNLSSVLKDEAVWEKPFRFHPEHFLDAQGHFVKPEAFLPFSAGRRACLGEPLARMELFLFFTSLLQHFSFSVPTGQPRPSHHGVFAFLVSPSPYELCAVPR

The target in the first data set is Mitogen-activated protein kinase 14 (Homo sapiens, UniProt Q16539). Also on record: species or system Escherichia coli.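 Note: inhibition of p38alpha enzyme activity in a biochemical kinase assay, with myelin basic protein serving as substrate; in other assays of this panel Not Active means under 50% inhibition at 10 µM.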
Mitogen-activated protein kinase 14, sequence (Q16539 whole entry): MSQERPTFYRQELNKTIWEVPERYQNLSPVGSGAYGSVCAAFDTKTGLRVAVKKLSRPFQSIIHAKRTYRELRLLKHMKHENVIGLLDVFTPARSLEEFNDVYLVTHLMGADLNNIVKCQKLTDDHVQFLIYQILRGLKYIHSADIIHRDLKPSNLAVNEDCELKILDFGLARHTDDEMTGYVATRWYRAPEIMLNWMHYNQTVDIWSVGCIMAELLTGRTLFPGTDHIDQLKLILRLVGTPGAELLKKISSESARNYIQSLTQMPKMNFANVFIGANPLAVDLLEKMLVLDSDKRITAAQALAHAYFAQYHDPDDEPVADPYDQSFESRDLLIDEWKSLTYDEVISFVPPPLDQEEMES
Conditions: not given
As for `C[C@]12CC[C@@H]3c4ccc(O)cc4CC[C@H]3[C@@H]1CC[C@@H]2O` [ESTRADIOL], the IC50 entry is “Not Active”.

For `CC[C@@H](CO)NCCN[C@@H](CC)CO` [ETHAMBUTOL], the IC50 result is listed as “Not Active”.

In the case of `CC1(C)O[C@@H]2C[C@H]3[C@@H]4C[C@H](F)C5=CC(=O)C=C[C@]5(C)[C@H]4[C@@H](O)C[C@]3(C)[C@]2(C(=O)CO)O1` [FLUNISOLIDE], the IC50 entry is “Not Active”.

For `CC1(C)O[C@@H]2C[C@H]3[C@@H]4C[C@H](F)C5=CC(=O)C=C[C@]5(C)[C@@]4(F)[C@@H](O)C[C@]3(C)[C@]2(C(=O)CO)O1` [FLUOCINOLONE ACETONIDE], the IC50 entry is listed as “Not Active”.

As for `CC1(C)O[C@@H]2C[C@H]3[C@@H]4C[C@H](F)C5=CC(=O)CC[C@]5(C)[C@H]4[C@@H](O)C[C@]3(C)[C@]2(C(=O)CO)O1` [FLURANDRENOLIDE], the IC50 result is recorded as “Not Active”.

A further data set deals with Nitric oxide synthase 1 (Rattus norvegicus, UniProt P29476). The data set is classed as tissue-based, Cerebellum.
Nitric oxide synthase 1, sequence (P29476 whole entry): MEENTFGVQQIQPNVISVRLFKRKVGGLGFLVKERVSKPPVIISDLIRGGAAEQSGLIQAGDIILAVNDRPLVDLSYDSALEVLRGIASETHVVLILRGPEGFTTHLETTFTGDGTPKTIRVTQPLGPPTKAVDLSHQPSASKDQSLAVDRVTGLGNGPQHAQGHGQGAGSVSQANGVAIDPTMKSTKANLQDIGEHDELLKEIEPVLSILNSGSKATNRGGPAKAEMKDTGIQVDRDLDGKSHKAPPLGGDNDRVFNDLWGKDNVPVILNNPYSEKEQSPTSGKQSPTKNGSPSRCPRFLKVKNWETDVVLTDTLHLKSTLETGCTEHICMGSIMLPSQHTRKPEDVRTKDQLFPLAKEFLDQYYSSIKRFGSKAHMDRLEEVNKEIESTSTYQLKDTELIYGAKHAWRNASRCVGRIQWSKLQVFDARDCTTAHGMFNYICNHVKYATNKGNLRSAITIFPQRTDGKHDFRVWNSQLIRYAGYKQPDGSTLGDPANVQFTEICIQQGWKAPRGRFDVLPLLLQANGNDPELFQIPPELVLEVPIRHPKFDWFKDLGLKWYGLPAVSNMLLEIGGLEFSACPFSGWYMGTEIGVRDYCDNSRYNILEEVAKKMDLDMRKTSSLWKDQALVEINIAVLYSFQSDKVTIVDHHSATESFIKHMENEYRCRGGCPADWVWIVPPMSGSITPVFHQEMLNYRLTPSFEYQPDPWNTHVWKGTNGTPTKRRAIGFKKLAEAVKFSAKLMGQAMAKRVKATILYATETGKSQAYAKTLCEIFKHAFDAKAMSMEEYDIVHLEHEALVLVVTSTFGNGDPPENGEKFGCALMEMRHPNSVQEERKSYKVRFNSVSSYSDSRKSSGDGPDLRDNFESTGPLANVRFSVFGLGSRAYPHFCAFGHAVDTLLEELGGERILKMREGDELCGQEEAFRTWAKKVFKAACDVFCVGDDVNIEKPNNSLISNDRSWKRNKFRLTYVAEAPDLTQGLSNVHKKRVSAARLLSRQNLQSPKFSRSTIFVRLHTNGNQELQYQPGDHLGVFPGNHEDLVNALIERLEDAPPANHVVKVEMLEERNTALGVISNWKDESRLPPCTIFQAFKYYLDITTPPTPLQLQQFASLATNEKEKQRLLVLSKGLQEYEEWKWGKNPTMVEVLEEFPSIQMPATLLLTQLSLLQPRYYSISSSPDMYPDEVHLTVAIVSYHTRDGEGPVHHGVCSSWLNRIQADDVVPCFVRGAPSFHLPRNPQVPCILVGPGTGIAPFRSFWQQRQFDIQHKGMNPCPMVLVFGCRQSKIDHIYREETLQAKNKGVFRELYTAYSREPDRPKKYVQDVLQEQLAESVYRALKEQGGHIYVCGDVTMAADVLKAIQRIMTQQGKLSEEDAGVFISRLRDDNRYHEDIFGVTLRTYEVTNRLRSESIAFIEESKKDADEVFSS
Conditions: not given
Regarding `C[C@]12CC[C@@H]3c4ccc(O)cc4CC[C@H]3[C@@H]1CC[C@@H]2O` [ESTRADIOL], the IC50 entry is listed as “Not Active”.

`CC[C@@H](CO)NCCN[C@@H](CC)CO` [ETHAMBUTOL]: the IC50 result is “Not Active”.

Regarding `CC1(C)O[C@@H]2C[C@H]3[C@@H]4C[C@H](F)C5=CC(=O)C=C[C@]5(C)[C@H]4[C@@H](O)C[C@]3(C)[C@]2(C(=O)CO)O1` [FLUNISOLIDE], the IC50 result was “Not Active”.

For `CC1(C)O[C@@H]2C[C@H]3[C@@H]4C[C@H](F)C5=CC(=O)C=C[C@]5(C)[C@@]4(F)[C@@H](O)C[C@]3(C)[C@]2(C(=O)CO)O1` [FLUOCINOLONE ACETONIDE], the IC50 result is “Not Active”.

Regarding `CC1(C)O[C@@H]2C[C@H]3[C@@H]4C[C@H](F)C5=CC(=O)CC[C@]5(C)[C@H]4[C@@H](O)C[C@]3(C)[C@]2(C(=O)CO)O1` [FLURANDRENOLIDE], the IC50 result is given as “Not Active”.

For a further data set, the target named is T1, Substance-K receptor (Homo sapiens, UniProt P21452). Note: in other assays of this panel Not Active means under 50% inhibition at 10 µM.
T1 sequence (P21452 whole entry): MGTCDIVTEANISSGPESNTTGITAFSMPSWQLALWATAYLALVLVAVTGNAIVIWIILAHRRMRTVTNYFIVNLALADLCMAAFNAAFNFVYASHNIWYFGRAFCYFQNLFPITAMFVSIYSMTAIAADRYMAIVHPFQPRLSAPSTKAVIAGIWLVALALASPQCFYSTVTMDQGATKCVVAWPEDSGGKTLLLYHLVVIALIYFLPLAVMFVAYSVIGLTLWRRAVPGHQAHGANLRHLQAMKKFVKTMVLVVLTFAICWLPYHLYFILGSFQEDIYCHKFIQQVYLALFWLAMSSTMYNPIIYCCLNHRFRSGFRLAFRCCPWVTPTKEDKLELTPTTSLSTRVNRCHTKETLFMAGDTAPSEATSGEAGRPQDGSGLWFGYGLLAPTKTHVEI
The data set is classed as cell membranes, CHO, Membrane. The conditions noted are these: cho.
For `C[C@]12CC[C@@H]3c4ccc(O)cc4CC[C@H]3[C@@H]1CC[C@@H]2O` [ESTRADIOL], the IC50 result is “Not Active”.

Take `CC[C@@H](CO)NCCN[C@@H](CC)CO` [ETHAMBUTOL]: the IC50 result is on record as “Not Active”.

In the case of `CC1(C)O[C@@H]2C[C@H]3[C@@H]4C[C@H](F)C5=CC(=O)C=C[C@]5(C)[C@H]4[C@@H](O)C[C@]3(C)[C@]2(C(=O)CO)O1` [FLUNISOLIDE], the IC50 result is reported as “Not Active”.

For the compound `CC1(C)O[C@@H]2C[C@H]3[C@@H]4C[C@H](F)C5=CC(=O)C=C[C@]5(C)[C@@]4(F)[C@@H](O)C[C@]3(C)[C@]2(C(=O)CO)O1` [FLUOCINOLONE ACETONIDE], the IC50 entry was “Not Active”.

For `CC1(C)O[C@@H]2C[C@H]3[C@@H]4C[C@H](F)C5=CC(=O)CC[C@]5(C)[C@H]4[C@@H](O)C[C@]3(C)[C@]2(C(=O)CO)O1` [FLURANDRENOLIDE], the IC50 result is listed as “Not Active”.

Another data set concerns the target Cytochrome P450 2D6 (Homo sapiens, UniProt P10635). Conditions: bti-tn-5b1-4. Note: in other assays of this panel Not Active means under 50% inhibition at 10 µM.
As to `C[C@]12CC[C@@H]3c4ccc(O)cc4CC[C@H]3[C@@H]1CC[C@@H]2O` [ESTRADIOL], the IC50 entry is given as “Not Active” and the Ki entry is listed as “Not Active”.

For the compound `CC[C@@H](CO)NCCN[C@@H](CC)CO` [ETHAMBUTOL], the IC50 result is recorded as “Not Active” and the Ki entry is “Not Active”.

As to `CC1(C)O[C@@H]2C[C@H]3[C@@H]4C[C@H](F)C5=CC(=O)C=C[C@]5(C)[C@H]4[C@@H](O)C[C@]3(C)[C@]2(C(=O)CO)O1` [FLUNISOLIDE], the IC50 entry is on record as “Not Active” and the Ki result was “Not Active”.

Regarding `CC1(C)O[C@@H]2C[C@H]3[C@@H]4C[C@H](F)C5=CC(=O)C=C[C@]5(C)[C@@]4(F)[C@@H](O)C[C@]3(C)[C@]2(C(=O)CO)O1` [FLUOCINOLONE ACETONIDE], the IC50 result was “Not Active” and the Ki result is listed as “Not Active”.

In the case of `CC1(C)O[C@@H]2C[C@H]3[C@@H]4C[C@H](F)C5=CC(=O)CC[C@]5(C)[C@H]4[C@@H](O)C[C@]3(C)[C@]2(C(=O)CO)O1` [FLURANDRENOLIDE], the IC50 result is “Not Active” and the Ki result is “Not Active”.

For the next data set, the target named is T2, Amine oxidase [flavin-containing] A (Homo sapiens, UniProt P21397).
T2 sequence (P21397 whole entry): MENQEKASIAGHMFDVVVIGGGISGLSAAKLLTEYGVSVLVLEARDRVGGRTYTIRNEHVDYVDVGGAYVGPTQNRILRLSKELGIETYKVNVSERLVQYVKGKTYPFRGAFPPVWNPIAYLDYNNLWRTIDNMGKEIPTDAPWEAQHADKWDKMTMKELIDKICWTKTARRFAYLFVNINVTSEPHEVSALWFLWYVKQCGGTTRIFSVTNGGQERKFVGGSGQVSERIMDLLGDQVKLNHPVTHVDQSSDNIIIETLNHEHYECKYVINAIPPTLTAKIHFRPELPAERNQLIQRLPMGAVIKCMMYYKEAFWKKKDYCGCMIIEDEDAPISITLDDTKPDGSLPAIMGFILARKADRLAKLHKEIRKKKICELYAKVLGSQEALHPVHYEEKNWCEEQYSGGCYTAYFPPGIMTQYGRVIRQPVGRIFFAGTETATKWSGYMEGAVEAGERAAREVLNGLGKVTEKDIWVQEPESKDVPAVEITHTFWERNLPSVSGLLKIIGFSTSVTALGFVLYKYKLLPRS
In words: DRUGMATRIX: Monoamine Oxidase MAO-A enzyme inhibition (substrate: Kynuramine). Also on record: species or system BTI-TN-5B1-4. Conditions: bti-tn-5b1-4; Not Active = under 50% inhibition at 10 µM.
On to `C[C@]12CC[C@@H]3c4ccc(O)cc4CC[C@H]3[C@@H]1CC[C@@H]2O` [ESTRADIOL], for which the IC50 result is on record as “Not Active”.

With `CC[C@@H](CO)NCCN[C@@H](CC)CO` [ETHAMBUTOL], the IC50 entry is “Not Active”.

For the compound `CC1(C)O[C@@H]2C[C@H]3[C@@H]4C[C@H](F)C5=CC(=O)C=C[C@]5(C)[C@H]4[C@@H](O)C[C@]3(C)[C@]2(C(=O)CO)O1` [FLUNISOLIDE], the IC50 entry was “Not Active”.

For the compound `CC1(C)O[C@@H]2C[C@H]3[C@@H]4C[C@H](F)C5=CC(=O)C=C[C@]5(C)[C@@]4(F)[C@@H](O)C[C@]3(C)[C@]2(C(=O)CO)O1` [FLUOCINOLONE ACETONIDE], the IC50 result is on record as “Not Active”.

Consider `CC1(C)O[C@@H]2C[C@H]3[C@@H]4C[C@H](F)C5=CC(=O)CC[C@]5(C)[C@H]4[C@@H](O)C[C@]3(C)[C@]2(C(=O)CO)O1` [FLURANDRENOLIDE], for which the IC50 result is “Not Active”.

The next data set addresses Adenosine receptor A2a (Homo sapiens, UniProt P29274). In words: DRUGMATRIX: Adenosine A2A radioligand binding (ligand: […]). The data set is classed as cell membranes, HEK293, Membrane. The conditions noted are these: hek293; Not Active = under 50% inhibition at 10 µM.
Take `C[C@]12CC[C@@H]3c4ccc(O)cc4CC[C@H]3[C@@H]1CC[C@@H]2O` [ESTRADIOL]: the IC50 result is reported as “Not Active”.

With `CC[C@@H](CO)NCCN[C@@H](CC)CO` [ETHAMBUTOL], the IC50 entry was “Not Active”.

Turning to `CC1(C)O[C@@H]2C[C@H]3[C@@H]4C[C@H](F)C5=CC(=O)C=C[C@]5(C)[C@H]4[C@@H](O)C[C@]3(C)[C@]2(C(=O)CO)O1` [FLUNISOLIDE], the IC50 entry was “Not Active”.

Take `CC1(C)O[C@@H]2C[C@H]3[C@@H]4C[C@H](F)C5=CC(=O)C=C[C@]5(C)[C@@]4(F)[C@@H](O)C[C@]3(C)[C@]2(C(=O)CO)O1` [FLUOCINOLONE ACETONIDE]: the IC50 result is listed as “Not Active”.

With `CC1(C)O[C@@H]2C[C@H]3[C@@H]4C[C@H](F)C5=CC(=O)CC[C@]5(C)[C@H]4[C@@H](O)C[C@]3(C)[C@]2(C(=O)CO)O1` [FLURANDRENOLIDE], the IC50 result is given as “Not Active”.
